In US8748417B2, “Amino-pyrrolidine-azetidine diamides as monoacylglycerol lipase inhibitors” (Janssen Pharmaceutica, NV, priority 2010, dated 2014):
Where a chain is given by its changes, count along the chain named.

Experiments:
[1] = target: T1, purified wild type MGL (wt-MGLL 6H-11-313) (Homo sapiens, UniProt Q99685); test: MGL enzyme activity assay (4MU-B cleavage), wild type MGL; assay type: biochemical; conditions: wild type MGL 5 nM, 4MU-B 10 μM, 37° C.; read-out: MGL wild type inh IC50
T1 construct: purified wild type MGL (wt-MGLL 6H-11-313)
T1 sequence (Q99685 1-303): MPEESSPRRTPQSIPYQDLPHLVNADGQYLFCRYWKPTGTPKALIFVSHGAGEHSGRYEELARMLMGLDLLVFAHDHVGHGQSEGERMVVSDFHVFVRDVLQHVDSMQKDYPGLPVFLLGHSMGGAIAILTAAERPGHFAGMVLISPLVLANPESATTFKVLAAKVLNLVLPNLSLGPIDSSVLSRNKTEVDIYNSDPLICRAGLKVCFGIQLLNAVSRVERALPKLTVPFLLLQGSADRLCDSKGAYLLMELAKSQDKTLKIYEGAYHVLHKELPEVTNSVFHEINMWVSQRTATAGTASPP
Summary of the method: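 Enzyme in 20 mM PIPES pH 7.0, 150 mM NaCl, 0.001% Tween 20 with 4MU-B at 10 μM final and MGL at 5 nM final; compounds 17 to 0.0003 μM final, enzyme added last. Fluorescence (ex 335/em 440 nm) followed at 37° C for 5 min; IC50 from fit of fractional activity versus inhibitor concentration.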

[2] = test system: MGL (rat brain homogenate); test: 2-AG accumulation assay in rat brain homogenate; assay type: biochemical; conditions: compound 1 μM, percent of vehicle 2-AG accumulation
Summary of the method: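 Rat brain homogenate was incubated with compound for 15 min at 37° C., after which CaCl2 was added to a final concentration of 10 mM and incubation continued for 15 min at 37° C. in 5 mL total. Reactions were stopped with 6 mL of 2:1 chloroform/methanol, and 2-AG accumulated in the organic phase was quantified by HPLC/MS.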

mutant MGL = target: T2, mutant MGL (Homo sapiens, UniProt Q99685, L169S/L176S); test: MGL ThermoFluor assay - mutant; assay type: binding; conditions: qNMR-corrected compound concentration; read-out: MGL mutant ThermoFluor qKd
T2 construct: purified mutant MGL (mut-MGLL 11-313 L179S L186S)
T2 sequence (Q99685 1-303 L169S/L176S): T1 sequence (Q99685 1-303) with L169S, L176S
Description: The ThermoFluor (TF) assay is a 384-well plate-based binding assay that measures thermal stability of proteins^1,2. The experiments were carried out using instruments available from Johnson & Johnson Pharmaceutical Research & Development, LLC. TF dye used in all experiments was 1,8-ANS (Invitrogen: A-47). Final TF assay conditions used for MGL studies were 0.07 mg/ml of mutant MGL, 100 μM ANS, 200 mM NaCl, 0.001% Tween-20 in 50 mM PIPES (pH=7.0).
Screening compound plates contained 100% DMSO compound solutions at a single concentration. For follow-up concentration-response studies, compounds were arranged in a pre-dispensed plate (Greiner Bio-one: 781280), wherein compounds were serially diluted in 100% DMSO across 11 columns within a series. Columns 12 and 24 were used as DMSO reference and contained no compound. For both single and multiple compound concentration-response experiments, the compound aliquots (46 nL) were robotically predispensed directly into 384-well black assay plates (Abgene: TF-0384/k) using the Hummingbird liquid handler. Following compound dispension, protein and dye solutions were added to achieve the final assay volume of 3 μL. The assay solutions were overlayed with 1 μL of silicone oil (Fluka, type DC 200: 85411) to prevent evaporation.
Bar-coded assay plates were robotically loaded onto a thermostatically controlled PCR-type thermal block and then heated from 40 to 90° C. degrees at a ramp-rate of 1° C./min for all experiments. Fluorescence was measured by continuous illumination with UV light (Hamamatsu LC6), supplied via fiber optics and filtered through a band-pass filter (380-400 nm; >6 OD cutoff). Fluorescence emission of the entire 384-well plate was detected by measuring light intensity using a CCD camera (Sensys, Roper Scientific) filtered to detect 500±25 nm, resulting in simultaneous and independent readings of all 384 wells. A single image with 20-sec exposure time was collected at each temperature, and the sum of the pixel intensity in a given area of the assay plate was recorded vs temperature and fit to standard equations to yield the Tm^1. • 1. Pantoliano, M. W., Petrella, E. C., Kwasnoski, J. D., Lobanov, V. S., Myslik, J., Graf, E., Carver, T., Asel, E., Springer, B. A., Lane, P., and Salemme, F. R. (2001) J Biomol Screen 6, 429-40. • 2. Matulis, D., Kranz, J. K., Salemme, F. R., and Todd, M. J. (2005) Biochemistry 44, 5258-66.
The Kd values for certain compounds of Formula (I) were determined from a fit of the equation to the concentration-response plot of the fractional activity as a function of […]. For some experiments, quantitative NMR spectroscopy (qNMR) was used to measure concentration of the initial 100% DMSO compound solutions and, using the same fitting method, qKd values were determined.

| SMILES | IC50 [1] [µM] | Rat Brain 2AG % VehCntrl (%) @1 μM [2] [%] | Kd (mutant MGL) [µM] |
| --- | --- | --- | --- |
| O=C(c1ccc2c(-c3cccc(F)c3)c[nH]c2c1)N1CC(N[C@H]2CCN(C(=O)c3nccs3)C2)C1 [Cpd 202, (3S)-N-(1-{[3-(3-Fluorophenyl)-1H-indol-6-yl]carbonyl}azetidin-3-yl)-1-(1,3-thiazol-2-ylcarbonyl)pyrrolidin-3-amine] | 0.011 | 363 | 0.0563 |
| O=C(c1ccc2c(-c3cccc(F)c3)c[nH]c2c1)N1CC(N[C@H]2CCN(C(=O)c3cscn3)C2)C1 [Cpd 203, (3S)-N-(1-{[3-(3-Fluorophenyl)-1H-indol-6-yl]carbonyl}azetidin-3-yl)-1-(1,3-thiazol-4-ylcarbonyl)pyrrolidin-3-amine] | 0.0504 | 238 | 0.264 |
| Cn1cc(-c2cccc(F)c2)c2ccc(C(=O)N3CC(N[C@H]4CCN(C(=O)c5nccs5)C4)C3)cc21 [Cpd 205, (3S)-N-(1-{[3-(3-Fluorophenyl)-1-methyl-1H-indol-6-yl]carbonyl}azetidin-3-yl)-1-(1,3-thiazol-2-ylcarbonyl)pyrrolidin-3-amine] | < 0.005 | 446 | 0.0214 |
| Cn1cc(-c2cccc(F)c2)c2ccc(C(=O)N3CC(N[C@H]4CCN(C(=O)c5cscn5)C4)C3)cc21 [Cpd 206, (3S)-N-(1-{[3-(3-Fluorophenyl)-1-methyl-1H-indol-6-yl]carbonyl}azetidin-3-yl)-1-(1,3-thiazol-4-ylcarbonyl)pyrrolidin-3-amine] | 0.081 | 267 | 0.122 |
| Cn1cc(-c2cccc(F)c2)c2ccc(C(=O)N3CC(N[C@H]4CCN(C(=O)c5ccccc5)C4)C3)cc21 [Cpd 207, (3S)-N-(1-{[3-(3-Fluorophenyl)-1-methyl-1H-indol-6-yl]carbonyl}azetidin-3-yl)-1-(phenylcarbonyl)pyrrolidin-3-amine] | 0.0639 | 238 | 0.1 |
| O=C(c1nccs1)N1CC[C@H](NC2CN(C(=O)c3cccc4c3ccn4-c3ccc(F)cc3)C2)C1 [Cpd 214, (3S)-N-(1-{[1-(4-Fluorophenyl)-1H-indol-4-yl]carbonyl}azetidin-3-yl)-1-(1,3-thiazol-2-ylcarbonyl)pyrrolidin-3-amine] | 0.106 | 524 | 0.53 |
| O=C(c1nccs1)N1CC[C@H](NC2CN(C(=O)c3cccc4c3CCN4c3ccc(F)cc3)C2)C1 [Cpd 216, (3S)-N-(1-{[1-(4-Fluorophenyl)-2,3-dihydro-1H-indol-4-yl]carbonyl}azetidin-3-yl)-1-(1,3-thiazol-2-ylcarbonyl)pyrrolidin-3-amine] | 0.0945 | 260 | 0.462 |
| O=C(c1cscn1)N1CC[C@H](NC2CN(C(=O)c3cccc4c3CCN4c3ccc(F)cc3)C2)C1 [Cpd 217, (3S)-N-(1-{[1-(4-Fluorophenyl)-2,3-dihydro-1H-indol-4-yl]carbonyl}azetidin-3-yl)-1-(1,3-thiazol-4-ylcarbonyl)pyrrolidin-3-amine] | 0.723 | – | 1.96 |
| O=C(c1nccs1)N1CC[C@H](NC2CN(C(=O)c3cn(-c4cccc(F)c4)c4ccccc34)C2)C1 [Cpd 218, (3S)-N-(1-{[1-(3-Fluorophenyl)-1H-indol-3-yl]carbonyl}azetidin-3-yl)-1-(1,3-thiazol-2-ylcarbonyl)pyrrolidin-3-amine] | 1.89 | – | 3.45 |
| O=C(c1nccs1)N1CC[C@H](NC2CN(C(=O)c3cn(-c4ccc(F)cc4)c4ccccc34)C2)C1 [Cpd 219, (3S)-N-(1-{[1-(4-Fluorophenyl)-1H-indol-3-yl]carbonyl}azetidin-3-yl)-1-(1,3-thiazol-2-ylcarbonyl)pyrrolidin-3-amine] | 4.98 | – | 4.98 |
| Cn1cc(Cc2ccc(F)cc2)c2ccc(C(=O)N3CC(N[C@H]4CCN(C(=O)c5nccs5)C4)C3)cc21 [Cpd 221, (3S)-N-(1-{[3-(4-Fluorobenzyl)-1-methyl-1H-indol-6-yl]carbonyl}azetidin-3-yl)-1-(1,3-thiazol-2-ylcarbonyl)pyrrolidin-3-amine] | < 0.005 | 878 | 0.0885 |
| CN(C(=O)Cn1ccc2cc(C(=O)N3CC(N[C@H]4CCN(C(=O)c5nccs5)C4)C3)ccc21)c1ccccc1 [Cpd 222, N-Methyl-N-phenyl-2-{5-[(3-{[(3S)-1-(1,3-thiazol-2-ylcarbonyl)pyrrolidin-3-yl]amino}azetidin-1-yl)carbonyl]-1H-indol-1-yl}acetamide] | 1.68 | – | 3.24 |
| O=C(c1nccs1)N1CC[C@H](NC2CN(C(=O)c3ccc4c(ccn4-c4ccc(F)cc4)c3Cl)C2)C1 [Cpd 223, (3S)-N-(1-{[4-Chloro-1-(4-fluorophenyl)-1H-indol-5-yl]carbonyl}azetidin-3-yl)-1-(1,3-thiazol-2-ylcarbonyl)pyrrolidin-3-amine] | 0.014 | – | 0.143 |
| Cc1cc2c(ccn2-c2ccc(F)cc2)cc1C(=O)N1CC(N[C@H]2CCN(C(=O)c3nccs3)C2)C1 [Cpd 224, (3S)-N-(1-{[1-(4-Fluorophenyl)-6-methyl-1H-indol-5-yl]carbonyl}azetidin-3-yl)-1-(1,3-thiazol-2-ylcarbonyl)pyrrolidin-3-amine] | 0.224 | – | 0.218 |
| O=C(c1nccs1)N1CC[C@H](NC2CN(C(=O)c3cc4ccn(-c5ccc(F)cc5)c4cc3Cl)C2)C1 [Cpd 225, (3S)-N-(1-{[6-Chloro-1-(4-fluorophenyl)-1H-indol-5-yl]carbonyl}azetidin-3-yl)-1-(1,3-thiazol-2-ylcarbonyl)pyrrolidin-3-amine] | 0.0392 | – | 0.102 |
